The record followed here is patent publication US9783522B2, “2-amino-pyridine and 2-amino-pyrimidine derivatives and medicinal use thereof” (MITSUBISHI TANABE PHARMA CORPORATION, priority 2014, dated 2017).

In general, pIC50 refers to −log10 of the IC50, conventionally taken in molar units.

pIC50: −log10 of the molar value.

For the first assay, the target named is T1, ATX activity in plasma (Rattus norvegicus, UniProt Q64610).
T1 construct: from tissue; host or cells: plasma of male Wistar rats after oral dosing (ex vivo)
Description: Measurement of ATX activity in plasma (ex vivo) after oral administration to rats. The note with it: male Wistar rat, 8 hr after administration, plasma ATX activity vs solvent control. As to the method:
A compound administration solution prepared by wet pulverization in a mixer mill (type: MM400) for 10 min and adjusting to a given concentration with 0.5% aqueous carboxymethylcellulose solution was orally administered to male Wistar rat (5-week-old when used) at 5 mL/kg. Blood samples were collected from the cervical vein over time at 8 to 24 hr after administration. The blood was heparin-treated using a micro blood collection tube Capiject (CJ-AL, TERUMO CORPORATION), and the plasma was separated by centrifugation (4° C., 12,000 rpm, 2 min), and preserved at −80° C. The rats after blood sampling were euthanized by exsanguination from the caudal vena cava under isoflurane inhalation anesthesia. The measurement of ATX activity in plasma was evaluated using the concentration of choline in the plasma, which was liberated from lysophosphatidylcholine (substrate of ATX) by the lysophospholipase D activity of ATX, as an index. An equal amount of 2× assay buffer (200 mM Tris-HCl pH9.0, 10 mM MgCl2, 1 M NaCl, 0.1% Triton X-100) is added to plasma (12 μL) and reacted at 37° C. for 6 hr. The reaction mixture (10 μL) after reaction for 6 hr and 45 μL of reagent R1 solution (100 mM Tris-HCl pH 8.0, 0.5 mM TOOS, 10 U/mL peroxidase, 0.01% Triton X-100) were added and blended and absorbance at 550-700 nm was measured and used as a prevalue. As the standard, choline chloride was used. 1 mM choline chloride was diluted with 2× assay buffer up to 7 steps in 2-fold serial dilution, R1 solution was treated similarly and the absorbance was measured. Furthermore, 15 μL of reagent R2 solution (100 mM Tris-HCl pH 8.0, 1 mM 4-aminoantipyrine, 10 U/mL choline oxidase, 0.01% Triton X-100) was added, and the mixture was reacted at room temperature for 10 min, and absorbance at 550-700 nm was measured. The choline concentration per reaction time was calculated from the difference between the absorbance after R2 solution addition and prevalue measured before R2 addition and used as ATX activity value. inhibitory activity (%)=100×{1-[choline concentration (μM) of test substance administration group/choline concentration (μM) of solvent control group]} <calculating formula>
As for `COc1c(C#N)cc(-c2ccc(NCc3cccc(OC(F)(F)F)c3)nc2)cc1CCC(=O)O` [Example 10, 3-{3-cyano-2-methoxy-5-[6-(3-trifluoromethoxy-benzylamino)-pyridin-3-yl]-phenyl}-propionic acid], the “Experimental Example 2 rat single administration test (inhibitory activity (%) at 8 hr after 1 mg/kg oral administration)” value worked out at 84%.
As for `COc1ccc(-c2cnc(NCc3cccc(OC(F)(F)F)c3)nc2)cc1C(=O)O` [Example 156], the “Experimental Example 2 rat single administration test (inhibitory activity (%) at 8 hr after 1 mg/kg oral administration)” value came out at 82%.
On to `COc1ccc(-c2cnc(NCc3cccc(OC(F)(F)F)c3)nc2)nc1[C@H]1C[C@@H]1C(=O)O` [17 (compound 4a), (1S,2S)-2-{3-methoxy-6-[2-(3-trifluoromethoxy-benzylamino)-pyrimidin-5-yl]-pyridin-2-yl}-cyclopropanecarboxylic acid], for which the “Experimental Example 2 rat single administration test (inhibitory activity (%) at 8 hr after 1 mg/kg oral administration)” value is listed as 88%.
As for `COc1c(C#N)cc(-c2cnc(NCc3cccc(OC(F)(F)F)c3)nc2)cc1CCC(=O)O` [Example 85], the “Experimental Example 2 rat single administration test (inhibitory activity (%) at 8 hr after 1 mg/kg oral administration)” value is listed as 88%.

The next assay has as its target human recombinant ATX (Homo sapiens, UniProt Q13822). Description: Enzyme inhibitory test (choline release from LPC, fluorescence). It is filed as biochemical. The note with it: LPC substrate, room temperature 1 hr, read-out: Experimental Example 1 human ATX IC50. The protocol:
A mixture (10 μL) of substrate and a set of choline quantification reagents (200 μM LPC (1-Oleoyl-sn-glycero-3-phosphocholine Sigma #L1881), 25 μM Amplex UltraRed reagent (Invitrogen), 0.1 U/mL Peroxidase (TOYOBO), 1 U/mL Choline oxidase (TOYOBO)), prepared with assay buffer (50 mM Tris (pH 8.0), 140 mM NaCl, 5 mM KCl, 1 mM CaCl2, 1 mM MgCl2, 0.1% BSA (Albumin from bovine serum, SIGMA), 0.0025% Triton X-100), enzyme (0.4 ng/μL human recombinant ATX) (10 μL), compound-containing solution (100 nL) were dispensed to a 384-well plate, incubated at room temperature for 1 hr and the fluorescence (Ex.525 nm/Em.598 nm) was measured. As the standard, choline chloride was used. With a blank free of enzyme was taken as inhibitory rate 100%, and a control free of inhibitor as inhibitory rate 0%, the inhibitory rate was calculated, and IC50 value was calculated from the inhibitory activity percentage at each concentration.
For the compound `COc1c(C#N)cc(-c2ccc(NCc3cccc(OC(F)(F)F)c3)nc2)cc1CCC(=O)O` [Example 10, 3-{3-cyano-2-methoxy-5-[6-(3-trifluoromethoxy-benzylamino)-pyridin-3-yl]-phenyl}-propionic acid], the pIC50 was 7.77.
Regarding `Cn1nc(C(=O)O)c2cc(-c3ccc(NCc4cccc(OC(F)(F)F)c4)nc3)ccc21` [Example 7, 1-methyl-5-[6-(3-trifluoromethoxy-benzylamino)-pyridin-3-yl]-1H-indazole-3-carboxylic acid], the pIC50 was 8.52.
Consider `Cn1nc(C(=O)O)c2cc(-c3cnc(NCc4cccc(OC(F)(F)F)c4)nc3)ccc21` [Example 74], for which the pIC50 is 8.52.
The same measure, in the same setting: the value for `COc1c(C#N)cc(-c2ccc(NCc3cccc(OC(F)(F)F)c3)nc2)cc1C(C)(C)C(=O)O` [Example 26, 2-{3-cyano-2-methoxy-5-[6-(3-trifluoromethoxy-benzylamino)-pyridin-3-yl]-phenyl}-2-methyl-propionic acid] was 7.82; that for `O=C(O)c1cc(-c2cnc(NCc3cccc(OC(F)(F)F)c3)nc2)cc(OC2COC2)c1Cl` [Example 136] was 7.51; that for `COc1c(Cn2ccnc2)cc(-c2ccc(NCc3cccc(OC(F)(F)F)c3)nc2)cc1C(C)(C)C(=O)O` [Example 108] was 7.62.
Take `COc1c(C#N)cc(-c2ccc(NCc3cccc(OC(F)(F)F)c3)nc2)cc1C(=O)O` [Example 63]: the pIC50 was 7.60.
As to `COc1ccc(-c2cnc(NCc3cccc(OC(F)(F)F)c3)nc2)cc1CCC(=O)O` [Example 21, 3-{2-methoxy-5-[2-(3-trifluoromethoxy-benzylamino)-pyrimidin-5-yl]-phenyl}-propionic acid], the pIC50 is 7.43.
The same measure, in the same setting: the same measure for `COc1ccc(-c2ccc(NCc3cccc(C(C)C)c3)nc2)cc1C(=O)O` [Example 176]: 7.33; for `COc1ccc(-c2ccc(NCc3cccc(OC(F)(F)F)c3)nc2)nc1[C@H]1C[C@@H]1C(=O)O` [16 (compound 1a), (1S,2S)-2-[5-methoxy-6′-(3-trifluoromethoxy-benzylamino)-[2,3′]bipyridinyl-6-yl]-cyclopropanecarboxylic acid]: 8.70; for `COc1cc(-c2ccc(NCc3cccc(OC(F)(F)F)c3)nc2)ccc1OC[C@H]1CC[C@H](C(=O)O)CC1` [Example 126]: 7.04.
In the case of `COc1c(CCC(=O)O)cc(-c2ccc(NCc3cccc(OC(F)(F)F)c3)nc2)cc1C1COC1` [Example 92], the pIC50 was 7.64.
On the same count and under the same terms, the value for `COc1c(C(=O)O)cc(-c2cnc(NCc3cccc(OC(F)(F)F)c3)nc2)cc1-c1ccoc1` [Example 140] was 7.51; that for `COc1ccc(-c2ccc(NCc3cccc(OC(F)(F)F)c3)nc2)cc1CC(=O)O` [Example 109] was 7.92.
Turning to `COc1ccc(-c2ccc(NCc3cccc(OC(F)(F)F)c3)nc2)cc1C(=O)O` [Example 34, 2-methoxy-5-[6-(3-trifluoromethoxy-benzylamino)-pyridin-3-yl]-benzoic acid], the pIC50 was 7.08.
Regarding `COc1ccc(-c2cnc(NCc3cccc(OC(F)(F)F)c3)nc2)cc1C(=O)O` [Example 156], the negative-log IC50 (pIC50) is 7.03.
Same read-out and setting: the same measure for `COc1ccc(-c2cnc(NCc3cccc(OC(F)(F)F)c3)nc2)nc1[C@H]1C[C@@H]1C(=O)O` [17 (compound 4a), (1S,2S)-2-{3-methoxy-6-[2-(3-trifluoromethoxy-benzylamino)-pyrimidin-5-yl]-pyridin-2-yl}-cyclopropanecarboxylic acid]: 8.70; for `COc1c(C(=O)O)cc(-c2cnc(NCc3cccc(OC(F)(F)F)c3)nc2)cc1-c1ccncc1` [Example 33, 2-methoxy-3-pyridin-4-yl-5-[2-(3-trifluoromethoxy-benzylamino)-pyrimidin-5-yl]-benzoic acid]: 8.00.
For `O=C(O)CN1CCN(c2ccc(-c3ccc(NCc4cccc(OC(F)(F)F)c4)nc3)cc2F)C1=O` [Example 44], the pIC50 was 7.12.
On to `COc1cc(-c2ccc(NCc3cccc(OC(F)(F)F)c3)nc2)ccc1C1CC1C(=O)O` (stereo not shown) [Example 88], for which the pIC50 was 7.70.
On the same count and under the same terms, the same measure for `COc1ccc(-c2ccc(NCc3cccc(OC(F)(F)F)c3)nc2)cc1OCC(=O)O` [Example 129]: 7.37; for `O=C(O)CCc1cc(-c2cnc(NCc3cccc(OC(F)(F)F)c3)nc2)ccc1Cl` [Example 11, 3-{2-chloro-5-[2-(3-trifluoromethoxy-benzylamino)-pyrimidin-5-yl]-phenyl}-propionic acid]: 7.89.
With `COc1ccc(-c2ccc(NCc3cccc(OC(F)(F)F)c3)nc2)cc1CCC(=O)O` [Example 22, 3-{2-methoxy-5-[6-(3-trifluoromethoxy-benzylamino)-pyridin-3-yl]-phenyl}-propionic acid], the pIC50 was 7.48.
For `CS(=O)(=O)CCCn1nc(C(=O)O)c2cc(-c3ccc(NCc4cccc(OC(F)(F)F)c4)nc3)ccc21` [Example 75], the pIC50 was 8.22.
In the case of `COc1ccc(-c2ccc(NCc3cccc(OC(F)(F)F)c3)nc2)c2[nH]nc(C(=O)O)c12` [Example 69], the pIC50 was 8.00.
With `O=C(O)c1cc(-c2cnc(NCc3cccc(OC(F)(F)F)c3)nc2)cc(OC2CNC2)c1Cl` [Example 30, 3-(azetidin-3-yloxy)-2-chloro-5-[2-(3-trifluoromethoxy-benzylamino)-pyrimidin-5-yl]-benzoic acid], the pIC50 was 7.66.
For the compound `O=C(O)c1cccc2nc(-c3ccc(NCc4cccc(OC(F)(F)F)c4)nc3)[nH]c12` [Example 2, 2-[6-(3-trifluoromethoxy-benzylamino)-pyridin-3-yl]-3H-benzimidazole-4-carboxylic acid], the pIC50 is 7.34.
`COc1c(C#N)cc(-c2cnc(NCc3cccc(OC(F)(F)F)c3)nc2)cc1CCC(=O)O` [Example 85]: the pIC50 is 8.15.
Consider `COc1cc(-c2ccc(NCc3cccc(OC(F)(F)F)c3)nc2)cc(OC)c1CCC(=O)O` [Example 98], for which the pIC50 was 8.15.
With `O=C(O)c1ccc2nc(-c3ccc(NCc4cccc(OC(F)(F)F)c4)nc3)oc2c1` [Example 3, 2-[6-(3-trifluoromethoxy-benzylamino)-pyridin-3-yl]-benzoxazole-6-carboxylic acid], the pIC50 was 7.46.
`O=C(O)c1cc(-c2cnc(NCc3cccc(OC(F)(F)F)c3)nc2)cc(OC2CCOCC2)c1Cl` [Example 133]: the pIC50 was 8.00.
Regarding `COCCn1nc(C(=O)O)c2cc(-c3ccc(NCc4cccc(OC(F)(F)F)c4)nc3)ccc21` [Example 73], the pIC50 was 8.05.
In the case of `COCCOc1cc(-c2cnc(NCc3cccc(OC(F)(F)F)c3)nc2)cc(C(=O)O)c1Cl` [Example 132], the pIC50 is 7.82.
